The source of these data is article PMC6715182, “Helicobacter pylori senses bleach (HOCl) as a chemoattractant using a cytosolic chemoreceptor” (PLoS Biology, 2019).

This assay addresses T1, DgcZ (Escherichia coli, UniProt P31129).
T1 construct: CZB domain (DgcZ-CZB, strain K12)
In words: cysteine sulfenic acid formation on purified domain, dimedone trapping and immunoblot. It is filed as binding. (A western blot detects proteins with antibodies after separation by electrophoresis.)

T1 sequence (P31129 2-127): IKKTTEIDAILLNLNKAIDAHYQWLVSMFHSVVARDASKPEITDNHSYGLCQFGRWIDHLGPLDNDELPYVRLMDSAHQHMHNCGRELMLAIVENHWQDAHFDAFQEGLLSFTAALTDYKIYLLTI

Consider `OCl` [HOCl], for which the “cysteine sulfenic acid formation on purified domain, dimedone trapping and immun” value was “We found them to be similarly reactive toward HOCl as TlpD”.
